The values that follow come from PMC10695193 (RSC Advances, 2023).

One test concerns HepG2. The test is described as follows: MTT anti-proliferative assay, HepG2. The test is classed as cell-based. The conditions noted are these: for IC50: Homo sapiens, HepG2, 72 h, read-out: IC50 HepG2; for fold times more toxic in HepG-2 than in VERO normal cells: HepG-2 versus VERO. In general terms: Tetrazolium dyes change colour on reduction, which living cells bring about.
The subject of the next test is A549. The test is described as follows: MTT anti-proliferative assay, A549. The conditions noted are these: for IC50: Homo sapiens, A549, 72 h, read-out: IC50 A549; for folds toxic in A549 than in ordinary VERO cells: A549 versus VERO. The format is cell-based.
In the next test the test system is HCT-116. Put plainly: MTT anti-proliferative assay, HCT-116. The conditions noted are these: for IC50: Homo sapiens, HCT-116, 72 h, read-out: IC50 HCT116; for folds toxic in HCT-116 than in normal VERO cells: HCT-116 versus VERO. The test is classed as cell-based.
The target in the next test is EGFR^T790M (Homo sapiens, UniProt P00533, T790M). Put plainly: EGFR^T790M kinase inhibitory assay. The test is classed as biochemical.
The subject of the next test is MCF-7. The test is described as follows: MTT anti-proliferative assay, MCF-7. The test is classed as cell-based. The conditions noted are these: for IC50: Homo sapiens, MCF7, 72 h, read-out: IC50 MCF-7; for folds toxic in MCF-7 than in ordinary VERO cells: MCF-7 versus VERO.
For the next test, the target named is VEGFR-2 (Homo sapiens, UniProt P35968). Put plainly: VEGFR-2 kinase inhibitory assay. The format is biochemical.

SMILES strings stand for the structures.

Sequence of EGFR^T790M (P00533 25-1210 T790M): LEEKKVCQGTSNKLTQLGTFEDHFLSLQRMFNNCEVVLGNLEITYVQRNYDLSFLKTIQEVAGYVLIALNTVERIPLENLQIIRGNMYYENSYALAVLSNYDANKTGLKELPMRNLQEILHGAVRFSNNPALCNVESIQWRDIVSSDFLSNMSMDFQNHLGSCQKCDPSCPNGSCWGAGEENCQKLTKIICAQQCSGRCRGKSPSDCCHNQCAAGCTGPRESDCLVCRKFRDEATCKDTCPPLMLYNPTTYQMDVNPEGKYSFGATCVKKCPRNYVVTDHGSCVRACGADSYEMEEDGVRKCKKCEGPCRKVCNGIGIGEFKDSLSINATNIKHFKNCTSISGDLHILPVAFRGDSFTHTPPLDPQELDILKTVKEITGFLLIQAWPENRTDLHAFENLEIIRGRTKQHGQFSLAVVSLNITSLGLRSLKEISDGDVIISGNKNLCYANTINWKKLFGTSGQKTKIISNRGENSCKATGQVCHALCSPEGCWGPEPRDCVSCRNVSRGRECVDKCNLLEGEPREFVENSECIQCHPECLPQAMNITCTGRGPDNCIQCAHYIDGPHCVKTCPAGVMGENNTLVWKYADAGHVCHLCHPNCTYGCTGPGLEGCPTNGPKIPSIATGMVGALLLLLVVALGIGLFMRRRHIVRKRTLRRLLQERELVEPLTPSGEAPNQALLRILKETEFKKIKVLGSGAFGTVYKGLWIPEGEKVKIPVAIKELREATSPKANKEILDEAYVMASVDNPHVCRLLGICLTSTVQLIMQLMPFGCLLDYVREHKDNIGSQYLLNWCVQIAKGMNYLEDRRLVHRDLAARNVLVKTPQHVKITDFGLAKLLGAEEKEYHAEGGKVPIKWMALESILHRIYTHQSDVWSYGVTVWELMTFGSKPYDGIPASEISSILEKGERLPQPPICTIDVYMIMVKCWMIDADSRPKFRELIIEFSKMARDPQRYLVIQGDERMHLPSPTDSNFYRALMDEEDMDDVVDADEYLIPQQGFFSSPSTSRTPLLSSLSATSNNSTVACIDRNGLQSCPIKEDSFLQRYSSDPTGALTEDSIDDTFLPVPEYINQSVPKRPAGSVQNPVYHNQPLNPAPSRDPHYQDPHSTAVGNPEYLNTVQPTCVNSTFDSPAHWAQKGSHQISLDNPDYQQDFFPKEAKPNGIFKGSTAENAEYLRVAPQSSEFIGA
Sequence of VEGFR-2 (P35968 20-1356): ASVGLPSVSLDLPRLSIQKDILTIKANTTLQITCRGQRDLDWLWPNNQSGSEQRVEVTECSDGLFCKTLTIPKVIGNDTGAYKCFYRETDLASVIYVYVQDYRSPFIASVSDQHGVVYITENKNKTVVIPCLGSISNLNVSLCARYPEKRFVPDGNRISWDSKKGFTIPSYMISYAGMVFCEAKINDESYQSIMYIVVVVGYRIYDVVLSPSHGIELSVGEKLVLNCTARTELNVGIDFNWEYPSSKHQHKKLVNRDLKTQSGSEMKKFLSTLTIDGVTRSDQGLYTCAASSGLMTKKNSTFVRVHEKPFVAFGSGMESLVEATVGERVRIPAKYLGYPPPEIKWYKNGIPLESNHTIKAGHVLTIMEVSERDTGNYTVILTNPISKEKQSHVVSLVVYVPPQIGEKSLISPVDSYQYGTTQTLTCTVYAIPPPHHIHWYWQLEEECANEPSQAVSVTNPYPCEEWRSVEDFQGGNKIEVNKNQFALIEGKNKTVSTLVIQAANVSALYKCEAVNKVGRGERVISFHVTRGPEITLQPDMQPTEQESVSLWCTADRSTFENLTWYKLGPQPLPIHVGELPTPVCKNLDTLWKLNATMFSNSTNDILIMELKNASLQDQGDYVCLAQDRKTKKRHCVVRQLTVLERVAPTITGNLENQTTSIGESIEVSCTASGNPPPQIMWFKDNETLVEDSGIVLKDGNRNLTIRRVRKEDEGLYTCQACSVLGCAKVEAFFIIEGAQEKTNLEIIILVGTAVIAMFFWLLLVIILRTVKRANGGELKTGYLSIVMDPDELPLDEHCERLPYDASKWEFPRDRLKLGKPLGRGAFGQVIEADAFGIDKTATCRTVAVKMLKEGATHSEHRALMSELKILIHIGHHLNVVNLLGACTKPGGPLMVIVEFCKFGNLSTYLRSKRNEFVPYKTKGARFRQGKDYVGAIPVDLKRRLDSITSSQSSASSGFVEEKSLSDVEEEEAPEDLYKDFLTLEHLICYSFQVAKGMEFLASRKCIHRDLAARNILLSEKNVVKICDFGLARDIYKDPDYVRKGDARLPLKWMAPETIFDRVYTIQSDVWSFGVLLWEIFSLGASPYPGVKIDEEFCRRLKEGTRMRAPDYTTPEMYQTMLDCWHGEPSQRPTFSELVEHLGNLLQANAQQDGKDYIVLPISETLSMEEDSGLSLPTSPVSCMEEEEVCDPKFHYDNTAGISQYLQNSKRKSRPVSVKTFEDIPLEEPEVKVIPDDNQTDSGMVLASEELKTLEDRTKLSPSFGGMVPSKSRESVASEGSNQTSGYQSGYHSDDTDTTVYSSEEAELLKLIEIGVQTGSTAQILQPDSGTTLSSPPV

By IC50 is commonly meant the point on the concentration scale where inhibition reaches its midpoint. As for `NC1=NOC(=O)C1=NNc1ccc(N=Nc2ccccc2)cc1` [Compound 3, 3-Amino-4-{2-[4-(phenyldiazenyl)phenyl]hydrazono}isoxazol-5(4H)-one], the concentration for half-maximal inhibition (IC50) in the test on HepG2 is 19 ± 4.4 µM; in the test with A549, 25.5 ± 3.5 µM; with HCT-116, 16.8 ± 3.7 µM; against EGFR^T790M, 2.1 ± 0.25 µM; with MCF-7, 17.6 ± 4.5 µM; on VEGFR-2, 3.25 ± 0.5 µM.

In the case of `NC1=NNC(=O)C1=NNc1ccc(N=Nc2ccccc2)cc1` [Compound 4, 5-Amino-4-{2-[4-(phenyldiazenyl)phenyl]hydrazono}-2,4-dihydro-3H-pyrazol-3-one], the concentration for half-maximal inhibition (IC50) stood at 10.6 ± 3 µM in the test on HepG2; 10.8 ± 1.5 µM with A549; 11.3 ± 3.1 µM in the test on HCT-116; 1.2 ± 0.35 µM against EGFR^T790M; 11.3 ± 3.3 µM with MCF-7; 1.85 ± 0.1 µM against VEGFR-2.

On to `NC1=NN(c2ccccc2)C(=O)C1=NNc1ccc(N=Nc2ccccc2)cc1` [Compound 5, 5-Amino-2-phenyl-4-{2-[4-(phenyldiazenyl)phenyl]hydrazono}-2,4-dihydro-3H-pyrazol-3-one], for which, in the test with HepG2, the “fold times more toxic in HepG-2 than in VERO normal cells” value (from here on “fold times more toxic in HepG-2 than”) was 5.72 fold. The 50% inhibitory concentration (IC50) is 7.8 ± 0.7 µM with HepG2; 6.5 ± 1.5 µM with A549; 8.12 ± 0.9 µM with HCT-116; 0.4 ± 0.35 µM against EGFR^T790M; 6.98 ± 1.1 µM with MCF-7; 1.25 ± 0.5 µM against VEGFR-2. In the test with A549, the “folds toxic in A549 than in ordinary VERO cells” value (“folds toxic in A549 than” for short) was determined as 8.86 folds. Further, the “folds toxic in HCT-116 than in normal VERO cells” value (shortened to “folds toxic in HCT-116 than”) in the test with HCT-116 is listed as 5.53 folds. In addition, the “folds toxic in MCF-7 than in ordinary VERO cells” value (“folds toxic in MCF-7 than” for short) in the test with MCF-7 turned out to be 6.21 folds.

As to `NC1=NN(c2ccc([N+](=O)[O-])cc2[N+](=O)[O-])C(=O)C1=NNc1ccc(N=Nc2ccccc2)cc1` [Compound 6, 5-Amino-2-(2,4-dinitrophenyl)-4-{2-[4-(phenyldiazenyl)phenyl]hydrazono}-2,4-dihydro-3H-pyrazol-3-one], the “fold times more toxic in HepG-2 than” value in the test on HepG2 is reported as 5.49 fold. Further, the concentration for half-maximal inhibition (IC50) with HepG2 came to 8.17 ± 2.6 µM; in the test with A549, 5.88 ± 0.5 µM; with HCT-116, 10.1 ± 2.9 µM; against EGFR^T790M, 0.35 ± 0.15 µM; with MCF-7, 9.11 ± 2.7 µM; at VEGFR-2, 1.6 ± 0.5 µM. Moreover, the “folds toxic in A549 than” value with A549 is 6.54 folds. The “folds toxic in HCT-116 than” value with HCT-116 is 4.47 folds. Besides, the “folds toxic in MCF-7 than” value in the test on MCF-7 worked out at 4.59 folds.

Take `NC(=O)N1N=C(N)C(N=Nc2ccc(N=Nc3ccccc3)cc2)C1=O` (stereo not drawn) [Compound 7, 3-Amino-5-oxo-4-{[4-(phenyldiazenyl)phenyl]diazenyl}-4,5-dihydro-1H-pyrazole-1-carboxamide]: the IC50 in the test on HepG2 is 15.6 ± 3.5 µM; in the test on A549 it was 8.5 ± 0.5 µM; with HCT-116, 17.5 ± 4 µM; on EGFR^T790M, 0.9 ± 0.25 µM; in the test with MCF-7 it was 14.2 ± 3.5 µM; against VEGFR-2, 2.35 ± 0.2 µM.

As to `N#CC(=NNc1ccc(N=Nc2ccccc2)cc1)c1nc(=S)[nH][nH]1` [Compound 9, N-[4-(Phenyldiazenyl)phenyl]-5-thioxo-2,5-dihydro-1H-1,2,4-triazole-3-carbohydrazonoyl-cyanide], the IC50 came out at 14.5 ± 2.8 µM in the test with HepG2; 12.2 ± 2.5 µM in the test on A549; 16.8 ± 3.3 µM in the test on HCT-116; 1.35 ± 0.15 µM against EGFR^T790M; 13.8 ± 3 µM in the test on MCF-7; 2 ± 0.1 µM at VEGFR-2.

Take `N#Cc1nn(-c2ccc(N=Nc3ccccc3)cc2)c(=S)n(-c2ccccc2)c1=O` [Compound 10, 5-Oxo-4-phenyl-2-[4-(phenyldiazenyl)phenyl]-3-thioxo-2,3,4,5-tetrahydro-1,2,4-triazine-6-carbonitrile]: the “fold times more toxic in HepG-2 than” value in the test on HepG2 was 6.39 fold. Further, the IC50 in the test with HepG2 amounted to 6.81 ± 1.9 µM; with A549, 7.35 ± 1.5 µM; with HCT-116, 9.23 ± 2.2 µM; against EGFR^T790M it was 0.5 ± 0.25 µM; with MCF-7, 7.28 ± 2.4 µM; against VEGFR-2, 1.5 ± 0.1 µM. Besides, in the test on A549, the “folds toxic in A549 than” value was found to be 8.67 folds. Further, the “folds toxic in HCT-116 than” value in the test on HCT-116 is 4.96 folds. The “folds toxic in MCF-7 than” value in the test with MCF-7 was 5.81 folds.

For `N#Cc1nn(-c2ccc(N=Nc3ccccc3)cc2)c(=S)[nH]c1=O` [Compound 11, 5-Oxo-2-[4-(phenyldiazenyl)phenyl]-3-thioxo-2,3,4,5-tetrahydro-1,2,4-triazine-6-carbonitrile], the half-maximal inhibitory concentration (IC50) in the test on HepG2 turned out to be 35.6 ± 4.8 µM; with A549, 30.2 ± 3.5 µM; with HCT-116, 37.9 ± 4.6 µM; at EGFR^T790M it was 2.5 ± 0.35 µM; in the test with MCF-7, 39.2 ± 4.8 µM; on VEGFR-2 it was 3.85 ± 0.5 µM.

With `N#Cc1nn(-c2ccc(N=Nc3ccccc3)cc2)c(=O)[nH]c1=O` [Compound 12, 3,5-Dioxo-2-[4-(phenyldiazenyl)phenyl]-2,3,4,5-tetrahydro-1,2,4-triazine-6-carbonitrile], the half-inhibitory concentration (IC50) turned out to be 21.1 ± 4.9 µM in the test on HepG2; 9.25 ± 1.5 µM in the test on A549; 22.5 ± 4.8 µM in the test on HCT-116; 0.95 ± 0.35 µM at EGFR^T790M; 30.2 ± 4.8 µM with MCF-7; 3.5 ± 0.5 µM at VEGFR-2.

As for `N#Cc1nn(-c2ccc(N=Nc3ccccc3)cc2)c(=N)[nH]c1=O` [Compound 13, 3-Imino-5-oxo-2-[4-(phenyldiazenyl)phenyl]-2,3,4,5-tetrahydro-1,2,4-triazine-6-carbonitrile], the IC50 in the test on HepG2 is 20.5 ± 4.2 µM; with A549, 15.5 ± 2.5 µM; in the test on HCT-116, 20.1 ± 3.5 µM; against EGFR^T790M, 1.5 ± 0.15 µM; in the test on MCF-7 it was 23.1 ± 3.8 µM; at VEGFR-2 it was 3.35 ± 0.5 µM.

`N#Cc1nn(-c2ccc(N=Nc3ccccc3)cc2)c(=N)n(S(=O)(=O)c2ccc(N)cc2)c1=O` [Compound 14, 4-[(4-Aminophenyl)sulfonyl]-3-imino-5-oxo-2-[4-(phenyldiazenyl)phenyl]-2,3,4,5-tetrahydro-1,2,4-triazine-6-carbonitrile]: the “fold times more toxic in HepG-2 than” value in the test on HepG2 came to 6.86 fold. The IC50 with HepG2 came out at 6.23 ± 2.3 µM; in the test on A549, 5.15 ± 1.5 µM; with HCT-116, 8.44 ± 2.6 µM; at EGFR^T790M, 0.25 ± 0.15 µM; with MCF-7, 6.37 ± 2.5 µM; at VEGFR-2 it was 0.95 ± 0.1 µM. For the same compound, in the test with A549, the “folds toxic in A549 than” value was found to be 10.72 folds. In addition, the “folds toxic in HCT-116 than” value in the test on HCT-116 was 7.68 folds. The “folds toxic in MCF-7 than” value in the test on MCF-7 is listed as 5.76 folds.

In the case of `C#Cc1cccc(Nc2ncnc3cc(OCCOC)c(OCCOC)cc23)c1` [Erlotinib, reference compound], the half-maximal inhibitory concentration (IC50) in the test with MCF-7 was found to be 8.2 ± 0.34 µM.

As to `CNC(=O)c1cc(Oc2ccc(NC(=O)Nc3ccc(Cl)c(C(F)(F)F)c3)cc2)ccn1` [Sorafenib, reference compound], the IC50 with HepG2 was 4 ± 0.33 µM.
